Results published in ChEMBL document CHEMBL1142653, “In silico prediction of membrane permeability from calculated molecular parameters” (J Med Chem, 2005).

Assays:
[1] = Apparent permeability of the compound was determined in MDCK (madin darby canine kidney) strain I; Activity = Papp 10e-6; assay type: ADME, Canis lupus familiaris; conditions: dog
[2] = Apparent permeability of the compound was determined inCaco-2 (human colon carcinoma) cells; Activity = Papp 10E-6; assay type: ADME; conditions: Caco-2

| Structure (SMILES) | Papp [1] [×10⁻⁶ cm/s] | Papp [2] [×10⁻⁶ cm/s] |
| --- | --- | --- |
| O=C(N[C@H](CO)[C@H](O)c1ccc([N+](=O)[O-])cc1)C(Cl)Cl [CHLORAMPHENICOL] | 3.15 |  |
| COCCc1ccc(OCC(O)CNC(C)C)cc1 (stereo unspecified) [METOPROLOL] | 37.8 | 18.2 |
| CC(C)NCC(O)COc1cccc2ccccc12 (stereo unspecified) [PROPRANOLOL] | 34.4 | 12.6 |
| CN/C(=C\[N+](=O)[O-])NCCSCc1ccc(CN(C)C)o1 [RANITIDINE] | 0.27 |  |
